Measurements as given in PMC4067310, “From Pan-Reactive KV7 Channel Opener to Subtype Selective Opener/Inhibitor by Addition of a Methyl Group” (PLoS ONE, 2014).

Tests used:
[1] = molecular target: T1, KV7.4 (Homo sapiens, UniProt P56696); assay: Two-electrode voltage-clamp of KV7.4 expressed in Xenopus laevis oocytes; format: cell-based
T1 construct: expressed in transfected cells; host or cells: Xenopus laevis oocytes injected with cRNA (pGEM-HE vector)
T1 sequence (P56696 1-695): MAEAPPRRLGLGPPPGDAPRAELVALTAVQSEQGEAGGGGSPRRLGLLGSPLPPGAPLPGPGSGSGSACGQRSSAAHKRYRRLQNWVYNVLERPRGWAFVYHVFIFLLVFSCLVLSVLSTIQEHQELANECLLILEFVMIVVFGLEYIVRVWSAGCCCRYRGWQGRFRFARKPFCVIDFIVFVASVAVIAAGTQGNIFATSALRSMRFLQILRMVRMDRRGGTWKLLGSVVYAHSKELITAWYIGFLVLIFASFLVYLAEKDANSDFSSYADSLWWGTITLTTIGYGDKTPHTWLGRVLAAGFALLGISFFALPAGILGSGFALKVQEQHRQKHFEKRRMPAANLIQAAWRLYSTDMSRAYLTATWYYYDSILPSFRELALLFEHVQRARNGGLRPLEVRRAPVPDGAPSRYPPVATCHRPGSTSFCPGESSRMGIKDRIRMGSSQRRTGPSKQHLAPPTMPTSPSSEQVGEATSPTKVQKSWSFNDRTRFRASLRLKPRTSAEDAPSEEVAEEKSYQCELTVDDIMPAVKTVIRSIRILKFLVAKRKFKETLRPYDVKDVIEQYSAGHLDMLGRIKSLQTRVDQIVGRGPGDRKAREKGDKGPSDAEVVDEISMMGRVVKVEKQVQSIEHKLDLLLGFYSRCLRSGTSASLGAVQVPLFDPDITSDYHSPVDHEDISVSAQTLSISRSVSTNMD
Description: (§1) Point mutations were introduced using mutated oligonucleotide extension (PfuTurbo Polymerase, Stratagene, La Jolla, CA, USA) from a plasmid template harboring the cDNA of interest, digested with DpnI (Fermentas, St. Leon-Roth, Germany) and transformed into E.coli XL1 Blue cells. The construct was verified by complete DNA sequencing of the cDNA insert. cRNA was prepared from linearized human wild-type (WT) and mutant KV7 channels in the pGEM-HE vector using the T7 m-Message Machine kit (Ambion, Austin, TX, USA) according to the manufacturer's instructions.
(§2) Extraction of Xenopus laevis oocytes and injection of cRNA was performed as described previously. Oocytes were kept in Modified Barth's Saline (in mM: 88 NaCl, 1 KCl, 2.4 NaHCO3, 0.41 CaCl2, 0.82 MgSO4, 0.3 Ca(NO3)2, 15 HEPES, pH 7.4 supplemented with 100 U/mL penicillin and 100 µg/mL streptomycin) at 18°C, and currents were recorded after 2-7 days. The care of Xenopus laevis and the oocyte extraction procedure were performed according to national guidelines and approved by the Danish Animal Experiments Inspectorate.
(§3) KV7 currents in Xenopus laevis oocytes were recorded using two-electrode voltage-clamp at room temperature in Ringer buffer (in mM: 115 NaCl, 2.5 KCl, 1.8 CaCl2, 0.1 MgCl2, 10 HEPES, pH 7.4) as described previously. Data was acquired using pCLAMP 10.2 software (Molecular Devices, CA, USA) and analyzed using pCLAMP 10.2 and GraphPad Prism 4.0 (GraphPad Software Inc., CA, USA). Currents were elicited from a holding potential of −80 mV by 5 s steps to potentials between −100 and +50 mV in 10 mV increments, followed by a 2 s step to −120 mV.
(§4) SMB-1 was dissolved in dimethyl sulfoxide (DMSO) to obtain a concentrated stock solution. On the day of experiments the stock solution was thawed and diluted in Ringer buffer to the final concentrations. A concentration of 10 µM SMB-1 was used unless indicated otherwise. The final DMSO concentration never exceeded 0.1%.
Current – voltage (I–V) relationship curves were generated by normalizing the steady-state peak current measured at potentials between −100 and +50 mV to the current measured at +50 mV in control recordings and plotting the values against the test potential.
The voltage-dependence of activation was determined from tail current analysis using the current measured immediately after the transient capacitive current after stepping to −120 mV from potentials between −100 mV and +50 mV. Data was normalized to extend from 0–1 and the tail current-voltage relationship was fitted to the Boltzmann equation: [drawing 1] (Equation\;1) where I max is the maximum tail current, I min is the minimum tail current, V0.5 is the potential for half maximal activation and k is the slope factor. A V0.5 was calculated for each individual experiment and statistical significance was estimated by paired two-tailed Student's t-test.
Activation kinetics for KV7.4 and KV7.4-W242L was determined by fitting the traces recorded at potentials between −30 and +50 mV to a single exponential function: [drawing 3] (Equation\;3) where I(t) is the current at time t, I 0 is the peak current and τ is the activation time constant.
For investigation of deactivation kinetics the tail current traces recorded at −120 mV when stepping from the channels' respective ∼V0.5 were fitted to a single exponential function (Eq. 3).
Dose-response curves from electrophysiological experiments were made by plotting the increase in steady state current at +50 mV expressed in percentages as a function of drug concentration. The data were then analyzed by non-linear regression and fitted to the equation for sigmoidal dose-response with variable slope: [drawing 4] (Equation\;4) where R1 is the initial response, R2 is the maximum response, X is the logarithm of the drug concentration and nH is the slope (Hill coefficient) of the curve.

[2] = molecular target: T2, KV7.2-L299V (Homo sapiens, UniProt O43526, L299V); assay: Two-electrode voltage-clamp of mutant KV7.2-L299V in Xenopus laevis oocytes; format: cell-based; settings: 10 µM SMB-1, +50 mV, n = 4; read-out: current amplitude, % of control
T2 construct: expressed in transfected cells; host or cells: Xenopus laevis oocytes injected with cRNA (pGEM-HE vector)
Description: as §1
as §2, with “The care of Xenopus laevis and the oocyte extraction procedure were performed according to national guidelines and approved by the Danish Animal Experiments Inspectorate.” left out
as §3, with “Currents were elicited from a holding potential of −80 mV by 5 s steps to potentials between −100 and +50 mV in 10 mV increments, followed by a 2 s step to −120 mV.” left out

[3] = Visual inspection of solution in Ringer buffer for precipitation; format: physicochemical
Description: as §4
To determine the potency of SMB-1 on KV7.2 the compound was tested at four concentrations (0.4, 2, 10 and 50 µM). […] The current amplitude in percentage of control at +50 mV was plotted against the logarithm of the concentration.

T2 sequence (O43526 whole entry L299V): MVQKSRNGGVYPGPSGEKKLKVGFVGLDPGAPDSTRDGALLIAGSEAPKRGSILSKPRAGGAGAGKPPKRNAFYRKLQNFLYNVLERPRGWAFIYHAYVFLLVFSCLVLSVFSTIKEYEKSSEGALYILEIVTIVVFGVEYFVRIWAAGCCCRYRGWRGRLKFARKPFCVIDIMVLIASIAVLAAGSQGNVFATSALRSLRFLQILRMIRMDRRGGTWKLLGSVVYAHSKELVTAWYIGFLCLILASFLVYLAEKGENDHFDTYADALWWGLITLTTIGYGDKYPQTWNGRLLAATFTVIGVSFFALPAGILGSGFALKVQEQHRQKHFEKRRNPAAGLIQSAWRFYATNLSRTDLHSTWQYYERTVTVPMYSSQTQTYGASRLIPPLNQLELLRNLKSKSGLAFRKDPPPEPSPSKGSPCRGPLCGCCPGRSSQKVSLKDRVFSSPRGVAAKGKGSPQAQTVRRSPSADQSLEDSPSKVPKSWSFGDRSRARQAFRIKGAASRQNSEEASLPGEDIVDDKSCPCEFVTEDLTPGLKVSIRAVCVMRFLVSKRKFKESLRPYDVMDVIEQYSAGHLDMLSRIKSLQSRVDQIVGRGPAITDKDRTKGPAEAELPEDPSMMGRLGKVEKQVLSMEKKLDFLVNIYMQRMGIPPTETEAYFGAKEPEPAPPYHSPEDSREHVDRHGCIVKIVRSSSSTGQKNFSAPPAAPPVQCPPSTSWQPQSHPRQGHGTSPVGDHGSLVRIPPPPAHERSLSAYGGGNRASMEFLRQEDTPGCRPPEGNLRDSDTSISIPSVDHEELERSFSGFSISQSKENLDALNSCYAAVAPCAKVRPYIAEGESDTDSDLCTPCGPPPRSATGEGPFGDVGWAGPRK

current amplitude, % of control at 10 µM ([1]; 10 µM SMB-1, +50 mV, n = 8): 184 ± 12.4%
effect on τact ([1]; 10 µM, at all potentials tested): significantly increased
τdeact, deactivation time constant in presence of compound ([1]; 10 µM, control 10.3±0.6 ms, n = 8, p<0.001): 16.4 ± 1.2 ms
V0.5, voltage-dependence of activation in presence of compound ([1]; 10 µM, control −0.2±3.6 mV, n = 8, p = 0.59): −1.4±3.4 mV
Emax ([1]; +50 mV, n = 5, read-out: maximal efficacy): 213 ± 33.1%
EC50 ([1]; increase in steady state current at +50 mV, n = 5): 5.7 µM
remaining activity at 10 µM [2]: 69.3 ± 5.6%
concentration above which the drug precipitated [3]: above 50 µM
Structure (SMILES): C[C@@H](c1ccc2c(c1)N(CC1CC1)CCO2)N(C)C(=O)/C=C/c1ccccc1F [SMB-1, (E)-N-[(S)-1-(4-Cyclopropylmethyl-3,4-dihydro-2H-1,4-benzoxazin-6-yl)-ethyl]-3-(2-fluoro-phenyl)-N-methyl-acrylamide]
